In patent US6248367A, “Bovine excretion extracts having anticancer and anti-inflammatory activity and process for preparing the same” (Kim; Bok Deuk, priority 1998, dated 2001):

Assay: in vitro
Details: rat, erythrocytes
Description: Cytotoxicity of the bovine excretion extracts according to the present invention was tested by measuring degree of hemolysis of erythrocytes. To erytlirocytes isolated from rats, the extracts prepared in example 1 were added and then, the mixture was cultivated at a temperature of 37° C. for 30, 60 and 120 minutes, respectively. After centrifugation, 400 μl of medium was taken and then reagent for detection of hemolysis was added thereto. Then, absorbance was read at 540 nm to determine degree of hemolysis. Degree of hemolysis (%) is calculated as follows: [formula]
Erythrocytes treated with menadione (positive control) were measured on degree of hemolysis, for the purpose of comparison with the bovine excretion extracts prepared in example 1. Menadione is a known compound which induce hemolysis of erythrocytes.

CC1=CC(=O)c2ccccc2C1=O [menadione, Menadione]
hemolysis at 0 h: 0% | hemolysis at 0.5 h: 1.6 ± 1.3% | hemolysis at 1 h: 2.3 ± 0.4% | hemolysis at 2 h: 65.3 ± 4.8%
